# Experimental data reported in patent US4617184A, “99m Tc-1,2-dihydroxy-1,2-bis(dihydroxyphosphinyl)ethane complex for skeleton scanning” (priority 1984, dated 1986).
# Assays:
# [1] = Acute and chronic toxicity of DHPE in rodents; type: in vivo; conditions: injected doses 5 to 250 mg per kg of body weight
# Source text: The amount of complexing agent required to be injected into a test animal or human patient for a satisfactory skeleton scintigraphy is three orders of magnitude smaller than the highest tested dose.
# [2] = Organ distribution of ^99m Tc-DHPE (freeze dried kit) in rats, i.v. tail vein; type: in vivo, Hooded strain rats; design: Dose per Organ: unit not given here
# Protocol: Twenty five milliliters of a sterile aqueous solution of 55.5 mg of DHPE were mixed with 12.5 mL of a freshly prepared sterile aqueous solution containing 0.1 mg of SnCl2 per milliliter and with 12.5 mL of a sterile aqueous solution of sodium acetate 10% W/V. Portions of 2 mL each of the resulting solution were transferred through a Millipore filter of 0.22 micron pore size into pharmaceutical vials. The vials were freeze dried for 24 hours and were sealed in vacuum. Four milliliters of saline solution of Na^+99m TcO4^- (20 millicuries Tc-99m) were added to each vial. The vial was vigorously shaken, and then allowed to stand for five minutes at normal ambient temperature.
# Two hundred fifty microliters of the above solution of the radiopharmaceutical ^99m Tc-DHPE were injected i.v. (intravenously) in the tail vein of each of six Hooded strain, closed colony, random breeding rats. The rats were sacrificed at the following time periods 1 hr, 2 hr, 4 hr, 6 hr, 12 hr, and 24 hrs. The organs of each rat were isolated and the distribution of Tc-99m determined by assay with a single channel analyzer equipped with a well type NaI(T1) scintillation detector.
# The experimental error in the distribution vs. time data for the ^99m Tc-DHPE complex was minimized by averaging six runs under identical conditions, always with the Hooded strain rats. The effect of organ geometry on radioactivity counting efficiency was taken into account. Corrections were also made so that, upon extrapolation back to time zero, the summation of activity in the organs was equal to the injected activity (i.e. by comparison to standards).
# [3] = Gamma camera bone imaging in anesthetized rabbit; type: in vivo
# Protocol: Two milliliters of a sterile saline solution of Na^+99m TcO4^- (IO millicuries Tc-99m) were added to a pharmaceutical vial containing 2 mL of a sterile aqueous solution containing 2.2 mg of DHPE, 50μg of SnCl2 and 50 mg of CH3 COONa. The vial was vigorously shaken, then allowed to stand for five minutes at room temperature. Paper chromatography of the solution was run according to the method outlined in Example 1 and only 2% unreacted pertechnetate was found.
# Bone imaging was carried out by intravenous injection of 0.5 milliliters of this solution into the ear vein of an anesthetized rabbit positioned under a gamma camera. […] As time passed the quality of the images improved. […] Less than 30% of the initial radioactivity in the blood was detected in the blood 30 minutes after injection.
# [4] = Distribution in rats of the complex prepared by electrochemical reduction; type: in vivo, Hooded strain rats; conditions: i.v. tail vein, electrochemically prepared complex
# Protocol: Four milliliters of a sterile aqueous solution containing 1.5 mg of DHPE, 20 mg of CH3 COONa and 10 mCi of Na^+99m TcO4^- were added to a sterile cell equipped with tin electrodes. An electrical charge of 5×10^-2 coulombs (20 sec×2.5 mA) was passed through to produce the ^99m Tc-DHPE complex. Paper chromatography of the solution was run according to the method outlined in Example 1. The determined radiochemical purity of the ^99m Tc-DHPE compound was 98%. The complex was assayed by intravenous injections into the tail veins of Hooded strain rats as in Example 1, the animals being sacrificed at 1, 2, 4, 6, 12, and 24 hours.
compound,measurement,setting,value
"O=P(O)(O)C(O)C(O)P(=O)(O)O (centres unmarked) [DHPE, 1,2-dihydroxy-1,2-bis(dihydroxyphosphinyl)ethane]",deaths or adverse effects (acute and chronic toxicity),[1],no deaths or adverse effects
"^99m Tc-1,2-Dihydroxy-1,2-bis(dihydroxyphosphinyl)ethane Complex [^99m Tc-DHPE]",Dose per Organ,"[2]; ADRENALS, 1 hr",0.006 ± 0.006
same,Dose per Organ,"[2]; ADRENALS, 2 hr",0.007 ± 0.005
same,Dose per Organ,"[2]; ADRENALS, 4 hr",0.003 ± 0.001
same,Dose per Organ,"[2]; ADRENALS, 6 hr",0.003 ± 0.001
same,Dose per Organ,"[2]; ADRENALS, 12 hr",0.001 ± 0.000
same,Dose per Organ,"[2]; ADRENALS, 24 hr",0.001 ± 0.000
same,Dose per Organ,"[2]; BLOOD, 1 hr",0.742 ± 0.384
same,Dose per Organ,"[2]; BLOOD, 2 hr",0.895 ± 0.515
same,Dose per Organ,"[2]; BLOOD, 4 hr",0.643 ± 0.414
same,Dose per Organ,"[2]; BLOOD, 6 hr",0.322 ± 0.067
same,Dose per Organ,"[2]; BLOOD, 12 hr",0.312 ± 0.209
same,Dose per Organ,"[2]; BLOOD, 24 hr",0.104 ± 0.015
same,Dose per Organ,"[2]; BONE, 1 hr",44.426 ± 2.556
same,Dose per Organ,"[2]; BONE, 2 hr",45.722 ± 3.411
same,Dose per Organ,"[2]; BONE, 4 hr",53.447 ± 2.828
same,Dose per Organ,"[2]; BONE, 6 hr",47.673 ± 6.612
same,Dose per Organ,"[2]; BONE, 12 hr",42.362 ± 4.449
same,Dose per Organ,"[2]; BONE, 24 hr",43.317 ± 2.825
same,Dose per Organ,"[2]; FECES, 1 hr",0.034 ± 0.054
same,Dose per Organ,"[2]; FECES, 2 hr",0.053 ± 0.088
same,Dose per Organ,"[2]; FECES, 4 hr",0.394 ± 0.343
same,Dose per Organ,"[2]; FECES, 6 hr",0.570 ± 0.205
same,Dose per Organ,"[2]; FECES, 12 hr",0.848 ± 0.601
same,Dose per Organ,"[2]; FECES, 24 hr",3.149 ± 1.799
same,Dose per Organ,"[2]; HEART, 1 hr",0.022 ± 0.008
same,Dose per Organ,"[2]; HEART, 2 hr",0.026 ± 0.012
same,Dose per Organ,"[2]; HEART, 4 hr",0.018 ± 0.008
same,Dose per Organ,"[2]; HEART, 6 hr",0.015 ± 0.004
same,Dose per Organ,"[2]; HEART, 12 hr",0.011 ± 0.005
same,Dose per Organ,"[2]; HEART, 24 hr",0.006 ± 0.001
same,Dose per Organ,"[2]; KIDNEYS, 1 hr",1.523 ± 0.371
same,Dose per Organ,"[2]; KIDNEYS, 2 hr",1.782 ± 0.365
same,Dose per Organ,"[2]; KIDNEYS, 4 hr",1.441 ± 0.277
same,Dose per Organ,"[2]; KIDNEYS, 6 hr",2.716 ± 0.365
same,Dose per Organ,"[2]; KIDNEYS, 12 hr",3.018 ± 0.825
same,Dose per Organ,"[2]; KIDNEYS, 24 hr",1.187 ± 0.119
same,Dose per Organ,"[2]; LARGE INTESTINE, 1 hr",1.548 ± 1.380
same,Dose per Organ,"[2]; LARGE INTESTINE, 2 hr",2.210 ± 1.789
same,Dose per Organ,"[2]; LARGE INTESTINE, 4 hr",2.906 ± 3.009
same,Dose per Organ,"[2]; LARGE INTESTINE, 6 hr",3.209 ± 0.684
same,Dose per Organ,"[2]; LARGE INTESTINE, 12 hr",0.648 ± 0.615
same,Dose per Organ,"[2]; LARGE INTESTINE, 24 hr",0.415 ± 0.448
same,Dose per Organ,"[2]; LIVER, 1 hr",0.095 ± 0.018
same,Dose per Organ,"[2]; LIVER, 2 hr",0.184 ± 0.049
same,Dose per Organ,"[2]; LIVER, 4 hr",0.187 ± 0.032
same,Dose per Organ,"[2]; LIVER, 6 hr",0.168 ± 0.044
same,Dose per Organ,"[2]; LIVER, 12 hr",0.131 ± 0.022
same,Dose per Organ,"[2]; LIVER, 24 hr",0.134 ± 0.030
same,Dose per Organ,"[2]; LUNGS, 1 hr",0.104 ± 0.033
same,Dose per Organ,"[2]; LUNGS, 2 hr",0.149 ± 0.105
same,Dose per Organ,"[2]; LUNGS, 4 hr",0.121 ± 0.029
same,Dose per Organ,"[2]; LUNGS, 6 hr",0.032 ± 0.007
same,Dose per Organ,"[2]; LUNGS, 12 hr",0.022 ± 0.015
same,Dose per Organ,"[2]; LUNGS, 24 hr",0.044 ± 0.024
same,Dose per Organ,"[2]; MUSCLE, 1 hr",1.138 ± 0.511
same,Dose per Organ,"[2]; MUSCLE, 2 hr",2.371 ± 1.206
same,Dose per Organ,"[2]; MUSCLE, 4 hr",2.193 ± 0.974
same,Dose per Organ,"[2]; MUSCLE, 6 hr",4.216 ± 2.815
same,Dose per Organ,"[2]; MUSCLE, 12 hr",2.139 ± 0.389
same,Dose per Organ,"[2]; MUSCLE, 24 hr",2.699 ± 1.989
same,Dose per Organ,"[2]; SMALL INTESTINE, 1 hr",0.963 ± 0.868
same,Dose per Organ,"[2]; SMALL INTESTINE, 2 hr",1.963 ± 2.085
same,Dose per Organ,"[2]; SMALL INTESTINE, 4 hr",1.009 ± 1.243
same,Dose per Organ,"[2]; SMALL INTESTINE, 6 hr",0.495 ± 0.205
same,Dose per Organ,"[2]; SMALL INTESTINE, 12 hr",0.318 ± 0.113
same,Dose per Organ,"[2]; SMALL INTESTINE, 24 hr",0.091 ± 0.033
same,Dose per Organ,"[2]; SPLEEN, 1 hr",0.020 ± 0.007
same,Dose per Organ,"[2]; SPLEEN, 2 hr",0.026 ± 0.007
same,Dose per Organ,"[2]; SPLEEN, 4 hr",0.020 ± 0.003
same,Dose per Organ,"[2]; SPLEEN, 6 hr",0.022 ± 0.007
same,Dose per Organ,"[2]; SPLEEN, 12 hr",0.008 ± 0.002
same,Dose per Organ,"[2]; SPLEEN, 24 hr",0.010 ± 0.004
same,Dose per Organ,"[2]; STOMACH, 1 hr",0.288 ± 0.137
same,Dose per Organ,"[2]; STOMACH, 2 hr",0.388 ± 0.176
same,Dose per Organ,"[2]; STOMACH, 4 hr",0.226 ± 0.243
same,Dose per Organ,"[2]; STOMACH, 6 hr",0.152 ± 0.148
same,Dose per Organ,"[2]; STOMACH, 12 hr",0.082 ± 0.023
same,Dose per Organ,"[2]; STOMACH, 24 hr",0.040 ± 0.029
same,Dose per Organ,"[2]; URINE, 1 hr",28.584 ± 5.562
same,Dose per Organ,"[2]; URINE, 2 hr",28.295 ± 1.829
same,Dose per Organ,"[2]; URINE, 4 hr",31.469 ± 4.991
same,Dose per Organ,"[2]; URINE, 6 hr",24.033 ± 5.995
same,Dose per Organ,"[2]; URINE, 12 hr",6.519
same,Dose per Organ,"[2]; URINE, 24 hr",8.600
same,excretion,"[2]; rats, i.v.",mainly via the kidneys to urine
same,removal from the blood,"[2]; rats, i.v.",fast removal
same,concentration to the skeleton,"[2]; rats, i.v., in comparison to other organs or tissues",fast and high concentration to the skeleton
same,initial radioactivity in the blood detected in the blood,[3]; 30 minutes after injection,Less than 30%
same,removal of the radiopharmaceutical from the blood,[3]; i.v. ear vein,fast removal
same,quality of skeleton images,"[3]; i.v. ear vein, 1 to 2.5 hrs post injection",Excellent images of the skeleton
same,skeleton visualization,"[3]; i.v. ear vein, thirty minutes post injection",clearly visualized
same,excretion,[4],mainly to the urine
same,skeleton uptake,[4],rapid skeleton uptake
same,uptake by other organs,[4]; effect on bone specificity,did not detract significantly from bone specificity
